Blank lines part the entries; values can stand above or below the compound they belong to.
Assays:
[1] = biological target: Bromodomain-containing protein 4 (Homo sapiens, UniProt O60885); assay: Selectivity interaction (AlphaScreen binding assay) EUB0001632a BRD4
[2] = biological target: Casein kinase II subunit alpha' (Homo sapiens) (UniProt P19784); assay: Selectivity interaction (ActivX KiNativ screen (kinase selectivity in THP-1 cell lysates)) EUB0000639a CSNK2A2; type: subcellular; conditions: lysate
Chain of Casein kinase II subunit alpha' (Homo sapiens) (P19784 whole entry, looked up): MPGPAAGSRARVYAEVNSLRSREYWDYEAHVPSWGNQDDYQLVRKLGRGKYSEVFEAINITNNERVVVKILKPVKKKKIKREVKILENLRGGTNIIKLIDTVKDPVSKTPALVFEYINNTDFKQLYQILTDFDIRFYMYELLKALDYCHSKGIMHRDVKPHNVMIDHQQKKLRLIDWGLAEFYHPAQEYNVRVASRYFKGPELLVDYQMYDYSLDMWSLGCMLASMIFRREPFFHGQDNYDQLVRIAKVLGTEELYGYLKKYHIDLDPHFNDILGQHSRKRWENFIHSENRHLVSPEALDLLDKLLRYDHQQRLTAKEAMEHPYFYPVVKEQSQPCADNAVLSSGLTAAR

[3] = biological target: T1, Serine/threonine-protein kinase Sgk1 (Homo sapiens) (UniProt O00141); assay: Selectivity interaction (ProQinase) EUB0000171b SGK1
T1 sequence (whole entry): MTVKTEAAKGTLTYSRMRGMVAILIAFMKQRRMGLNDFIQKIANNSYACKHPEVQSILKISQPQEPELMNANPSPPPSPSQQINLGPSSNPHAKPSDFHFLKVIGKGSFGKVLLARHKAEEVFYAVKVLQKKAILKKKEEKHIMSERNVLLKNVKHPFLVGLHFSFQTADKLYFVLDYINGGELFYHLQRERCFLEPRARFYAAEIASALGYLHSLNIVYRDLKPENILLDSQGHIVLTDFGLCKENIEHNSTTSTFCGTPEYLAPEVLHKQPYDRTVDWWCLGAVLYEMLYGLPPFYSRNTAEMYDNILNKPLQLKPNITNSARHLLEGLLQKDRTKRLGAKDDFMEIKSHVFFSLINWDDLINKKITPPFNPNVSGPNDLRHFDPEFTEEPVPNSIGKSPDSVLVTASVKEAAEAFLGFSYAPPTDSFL

[4] = biological target: T2, Muscarinic acetylcholine receptor M1 (Homo sapiens) (UniProt P11229); assay: Selectivity interaction (Safety Panel 44tm (Eurofins)) EUB0000162b CHRM1; conditions: at 10 µM
T2 sequence (whole entry): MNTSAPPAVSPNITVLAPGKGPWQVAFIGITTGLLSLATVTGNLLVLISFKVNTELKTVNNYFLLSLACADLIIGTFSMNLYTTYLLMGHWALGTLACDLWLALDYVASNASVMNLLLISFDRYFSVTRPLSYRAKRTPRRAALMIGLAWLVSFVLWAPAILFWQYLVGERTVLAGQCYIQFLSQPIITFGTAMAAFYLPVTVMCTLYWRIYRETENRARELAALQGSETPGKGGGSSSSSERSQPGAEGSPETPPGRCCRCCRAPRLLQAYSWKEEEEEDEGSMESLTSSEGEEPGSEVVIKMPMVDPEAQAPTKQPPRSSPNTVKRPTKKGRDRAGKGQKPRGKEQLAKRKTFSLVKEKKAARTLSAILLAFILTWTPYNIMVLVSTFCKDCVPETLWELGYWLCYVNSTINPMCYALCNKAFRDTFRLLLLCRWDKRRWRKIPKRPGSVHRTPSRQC

[5] = biological target: T3, Casein kinase I isoform alpha-like (Homo sapiens) (UniProt Q8N752); assay: Selectivity interaction (Ambit KINOMEscan and KiNATiv profiling in Jurkat cells) EUB0000090b CSNK1A1L; type: cell-based; conditions: at 1 µM
T3 sequence (whole entry): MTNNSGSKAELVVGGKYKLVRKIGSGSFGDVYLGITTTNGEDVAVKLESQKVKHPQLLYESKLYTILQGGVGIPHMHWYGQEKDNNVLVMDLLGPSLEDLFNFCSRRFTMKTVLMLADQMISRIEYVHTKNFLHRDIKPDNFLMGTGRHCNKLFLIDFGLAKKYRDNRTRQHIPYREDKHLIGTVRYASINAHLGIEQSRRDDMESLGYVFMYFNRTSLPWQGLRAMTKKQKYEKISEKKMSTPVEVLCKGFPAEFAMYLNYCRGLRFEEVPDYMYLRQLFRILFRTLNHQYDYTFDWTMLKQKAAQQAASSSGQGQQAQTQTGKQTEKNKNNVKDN

[6] = biological target: T4, Serine/threonine-protein kinase Nek1 (Homo sapiens) (UniProt Q96PY6); assay: Selectivity interaction (ActivX KiNativ screen (ex vivo kinase selectivity in human PBMCs)) EUB0001619a NEK1; type: cell-based; conditions: PBMC, at 1 µM
T4 sequence (whole entry): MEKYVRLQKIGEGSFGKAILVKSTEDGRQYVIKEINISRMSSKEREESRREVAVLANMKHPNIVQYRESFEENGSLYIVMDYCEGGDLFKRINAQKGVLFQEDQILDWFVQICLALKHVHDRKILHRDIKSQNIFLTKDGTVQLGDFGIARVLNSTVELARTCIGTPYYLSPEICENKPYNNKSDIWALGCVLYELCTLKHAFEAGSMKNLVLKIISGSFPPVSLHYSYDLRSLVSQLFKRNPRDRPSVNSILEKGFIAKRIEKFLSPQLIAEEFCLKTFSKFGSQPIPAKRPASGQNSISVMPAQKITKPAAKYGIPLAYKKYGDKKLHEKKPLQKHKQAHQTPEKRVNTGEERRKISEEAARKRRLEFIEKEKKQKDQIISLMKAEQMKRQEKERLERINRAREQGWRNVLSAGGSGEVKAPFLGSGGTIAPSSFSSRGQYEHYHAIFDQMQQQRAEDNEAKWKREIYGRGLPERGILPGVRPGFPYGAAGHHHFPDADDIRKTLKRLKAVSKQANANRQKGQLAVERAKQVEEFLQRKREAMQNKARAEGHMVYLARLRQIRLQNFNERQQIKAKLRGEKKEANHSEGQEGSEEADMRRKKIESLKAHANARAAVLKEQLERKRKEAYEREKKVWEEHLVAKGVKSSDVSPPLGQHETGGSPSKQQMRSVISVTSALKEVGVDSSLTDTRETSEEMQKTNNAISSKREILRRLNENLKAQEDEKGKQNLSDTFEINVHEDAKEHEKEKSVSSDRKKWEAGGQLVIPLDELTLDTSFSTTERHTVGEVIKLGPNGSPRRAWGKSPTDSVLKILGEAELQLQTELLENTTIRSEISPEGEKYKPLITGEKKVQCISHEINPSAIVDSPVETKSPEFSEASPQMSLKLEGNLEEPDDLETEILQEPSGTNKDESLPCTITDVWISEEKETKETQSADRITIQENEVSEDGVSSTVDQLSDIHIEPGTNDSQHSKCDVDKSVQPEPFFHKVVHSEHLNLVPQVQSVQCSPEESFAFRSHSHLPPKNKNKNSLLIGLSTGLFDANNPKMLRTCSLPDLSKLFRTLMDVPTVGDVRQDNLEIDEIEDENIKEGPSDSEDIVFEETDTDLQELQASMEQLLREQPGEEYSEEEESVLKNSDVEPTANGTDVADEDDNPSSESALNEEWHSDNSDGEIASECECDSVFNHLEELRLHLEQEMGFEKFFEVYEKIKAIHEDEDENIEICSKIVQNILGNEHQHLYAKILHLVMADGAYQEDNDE

[7] = biological target: T1, Serine/threonine-protein kinase Sgk1 (Homo sapiens); assay: Selectivity interaction (KinomeScan (DiscoverX)) EUB0001619a SGK1; conditions: at 1 µM

SMILES: CN(C)C(=O)Cn1cc(-c2ccc(-c3cncc4ccccc34)cc2)cn1
% of control [4]: 87%

SMILES: CN(C)C/C=C/C(=O)Nc1ccc(C(=O)N2CCCC(Nc3ncc(Cl)c(-c4c[nH]c5ccccc45)n3)C2)cc1 (configuration not stated)
% of control [5]: 65%

SMILES: N#Cc1cccc(-c2c[nH]c3ncnc(N4CCOCC4)c23)c1
% of inhibition [6]: -2%
% of control [7]: 65%

Other lines, results leading:

IC50 [1]: > 10 µM
SMILES: Cn1cc(-n2cnc3c(NCc4nc5cc(Cl)c(Cl)cc5[nH]4)nc(N4CCOCC4)nc32)cn1

% of inhibition ([2]; at 0.01 µM): -4.5%
% of inhibition ([2]; at 0.04 µM): -21.2%
% of inhibition ([2]; at 0.2 µM): -18%
% of inhibition ([2]; at 1 µM): -3.6%
% of inhibition ([2]; at 5 µM): -2.6%
SMILES: CC[C@@H]1[C@H](F)C(=O)N[C@@H]1COc1nccc2cc(C(N)=O)c(OC)cc12 [ZIMLOVISERTIB]

% of control ([3]; at 1 µM): 49%
% of control ([3]; at 5 µM): 15%
SMILES: C=CC(=O)Nc1cccc(C(=O)Nc2ccc(Nc3cc(-c4[nH]c(SC)nc4C)ccn3)cc2)c1
